Measurements published in US10751335B2 (priority 2016, dated 2020).

Experiments:
mice = conditions: mouse, in vivo
human MOR = human MOR (Homo sapiens (Human), UniProt P35372)

| Compound | constipation following acute administration (mice) | G/βarr2 bias factor (human MOR) |
| --- | --- | --- |
| CN1CC[C@]23c4c5ccc(O)c4O[C@H]2[C@@H](O)C=C[C@H]3[C@H]1C5 [morphine] | induced constipation |  |
| COc1ccsc1CNCC[C@@]1(c2ccccn2)CCOC2(CCCC2)C1 [TRV-130] |  | 3.0 |
